ChEMBL document CHEMBL3792286, “A convenient and efficient approach to polyfluorosalicylic acids and their tuberculostatic activity” (Bioorg Med Chem Lett, 2016)
≈ marks a conversion by molar mass, not a printed value. Calls of active or inactive are those of the source. The calls are words filed in the database; no cut-off is given here.

Columns and labels:
[1] = tested on: Mycobacterium tuberculosis; assay: microbe, parasite or virus in culture; conditions: 240 h
[2] = tested on: Mycobacterium tuberculosis

Row | SMILES | MIC [1] [µg/mL] | MIC [2]
1 | CC1COc2c(N3CCN(C)CC3)c(F)cc3c(=O)c(C(=O)O)cn1c23 (stereo not given) [OFLOXACIN] | 0.1 (≈ 0.277 µM) | 
2 | O=C(O)c1cc(F)c(F)cc1O | 0.7 (≈ 4.02 µM) | 
3 | O=C(O)c1ccc(F)c(F)c1O | 1.5 (≈ 8.62 µM) | 
4 | NNC(=O)c1ccncc1 [ISONIAZID] |  | inactive
5 | O=C(O)c1c(O)c(F)c(F)c(F)c1F | 0.7 (≈ 3.33 µM) | 
